Experimental data: the NIST ThermoML archive (doi:10.1021/acs.jced.6b00455)
± gives the expanded uncertainty stated by the source.

Assay: mn = molality of the nth substance listed, in mol/kg
Details: 101 kPa, Liquid, Alternating current cell with electrodes

C[N+](C)(C)CCO.O=C([O-])C(F)(F)C(F)(F)C(F)(F)C(F)(F)C(F)(F)C(F)(F)F [(2-hydroxyethyl)trimethylammonium perfluoroheptanoate] + O
Details | electrical conductivity [S/m]
293.15 K, m1 = 0.000135 | 0.0009 ± 0.0001
293.15 K, m1 = 0.000317 | 0.002 ± 0.0001
293.15 K, m1 = 0.000535 | 0.0035 ± 0.0002
293.15 K, m1 = 0.000719 | 0.0047 ± 0.0003
293.15 K, m1 = 0.000905 | 0.0059 ± 0.0004
293.15 K, m1 = 0.001097 | 0.0071 ± 0.0004
293.15 K, m1 = 0.001295 | 0.0083 ± 0.0005
293.15 K, m1 = 0.001556 | 0.01 ± 0.0006
293.15 K, m1 = 0.001738 | 0.0112 ± 0.0007
293.15 K, m1 = 0.001921 | 0.0124 ± 0.0007
293.15 K, m1 = 0.002361 | 0.0151 ± 0.0009
293.15 K, m1 = 0.002553 | 0.0164 ± 0.001
293.15 K, m1 = 0.002745 | 0.0179 ± 0.0011
293.15 K, m1 = 0.002967 | 0.0189 ± 0.0011
293.15 K, m1 = 0.003167 | 0.0201 ± 0.0012
293.15 K, m1 = 0.003365 | 0.021 ± 0.0013
293.15 K, m1 = 0.003617 | 0.0224 ± 0.0013
293.15 K, m1 = 0.003811 | 0.0234 ± 0.0014
293.15 K, m1 = 0.003989 | 0.0244 ± 0.0015
293.15 K, m1 = 0.004235 | 0.0259 ± 0.0016
293.15 K, m1 = 0.004463 | 0.0271 ± 0.0016
293.15 K, m1 = 0.004647 | 0.0283 ± 0.0017
293.15 K, m1 = 0.005243 | 0.0318 ± 0.0019
293.15 K, m1 = 0.00563 | 0.0339 ± 0.002
293.15 K, m1 = 0.006196 | 0.037 ± 0.0022
293.15 K, m1 = 0.006659 | 0.0405 ± 0.0024
293.15 K, m1 = 0.006813 | 0.0416 ± 0.0025
293.15 K, m1 = 0.007215 | 0.0437 ± 0.0026
293.15 K, m1 = 0.007673 | 0.0468 ± 0.0028
293.15 K, m1 = 0.007989 | 0.0489 ± 0.0029
298.15 K, m1 = 0.000182 | 0.0012 ± 0.0001
298.15 K, m1 = 0.000351 | 0.0023 ± 0.0001
298.15 K, m1 = 0.000524 | 0.0036 ± 0.0002
298.15 K, m1 = 0.000696 | 0.0048 ± 0.0003
298.15 K, m1 = 0.000849 | 0.0059 ± 0.0004
298.15 K, m1 = 0.001022 | 0.0071 ± 0.0004
298.15 K, m1 = 0.001139 | 0.0079 ± 0.0005
298.15 K, m1 = 0.001334 | 0.0092 ± 0.0006
298.15 K, m1 = 0.001552 | 0.0107 ± 0.0006
298.15 K, m1 = 0.001763 | 0.0123 ± 0.0007
298.15 K, m1 = 0.001988 | 0.014 ± 0.0008
298.15 K, m1 = 0.002225 | 0.0158 ± 0.0009
298.15 K, m1 = 0.002433 | 0.0172 ± 0.001
298.15 K, m1 = 0.002631 | 0.0186 ± 0.0011
298.15 K, m1 = 0.00283 | 0.0198 ± 0.0012
298.15 K, m1 = 0.003092 | 0.0212 ± 0.0013
298.15 K, m1 = 0.003297 | 0.0222 ± 0.0013
298.15 K, m1 = 0.003578 | 0.0237 ± 0.0014
298.15 K, m1 = 0.003893 | 0.0254 ± 0.0015
298.15 K, m1 = 0.004239 | 0.0271 ± 0.0016
298.15 K, m1 = 0.004535 | 0.0288 ± 0.0017
298.15 K, m1 = 0.004786 | 0.0303 ± 0.0018
298.15 K, m1 = 0.00505 | 0.0318 ± 0.0019
298.15 K, m1 = 0.005319 | 0.0333 ± 0.002
298.15 K, m1 = 0.005529 | 0.0345 ± 0.0021
298.15 K, m1 = 0.005823 | 0.0361 ± 0.0022
303.15 K, m1 = 0.000162 | 0.0014 ± 0.0001
303.15 K, m1 = 0.000327 | 0.0027 ± 0.0002
303.15 K, m1 = 0.000396 | 0.0031 ± 0.0002
303.15 K, m1 = 0.000558 | 0.0045 ± 0.0003
303.15 K, m1 = 0.000597 | 0.0046 ± 0.0003
303.15 K, m1 = 0.000902 | 0.0068 ± 0.0004
303.15 K, m1 = 0.001056 | 0.0084 ± 0.0005
303.15 K, m1 = 0.001145 | 0.0088 ± 0.0005
303.15 K, m1 = 0.001333 | 0.0102 ± 0.0006
303.15 K, m1 = 0.001525 | 0.0116 ± 0.0007
303.15 K, m1 = 0.001575 | 0.0126 ± 0.0008
303.15 K, m1 = 0.001779 | 0.0138 ± 0.0008
303.15 K, m1 = 0.001975 | 0.0164 ± 0.001
303.15 K, m1 = 0.00219 | 0.0173 ± 0.001
303.15 K, m1 = 0.002392 | 0.0187 ± 0.0011
303.15 K, m1 = 0.002573 | 0.0201 ± 0.0012
303.15 K, m1 = 0.002757 | 0.0218 ± 0.0013
303.15 K, m1 = 0.003 | 0.0233 ± 0.0014
303.15 K, m1 = 0.003295 | 0.0254 ± 0.0015
303.15 K, m1 = 0.003479 | 0.0262 ± 0.0016
303.15 K, m1 = 0.003569 | 0.0269 ± 0.0016
303.15 K, m1 = 0.00377 | 0.0282 ± 0.0017
303.15 K, m1 = 0.00395 | 0.0297 ± 0.0018
303.15 K, m1 = 0.004136 | 0.0313 ± 0.0019
303.15 K, m1 = 0.004356 | 0.033 ± 0.002
303.15 K, m1 = 0.00458 | 0.0343 ± 0.0021
303.15 K, m1 = 0.004761 | 0.0357 ± 0.0021
303.15 K, m1 = 0.005083 | 0.0368 ± 0.0022
308.15 K, m1 = 0.000308 | 0.0028 ± 0.0002
308.15 K, m1 = 0.001088 | 0.0096 ± 0.0006
308.15 K, m1 = 0.001458 | 0.0131 ± 0.0008
308.15 K, m1 = 0.001696 | 0.0151 ± 0.0009
308.15 K, m1 = 0.001932 | 0.0174 ± 0.001
308.15 K, m1 = 0.002314 | 0.0204 ± 0.0012
308.15 K, m1 = 0.002768 | 0.0243 ± 0.0015
308.15 K, m1 = 0.002948 | 0.0255 ± 0.0015
308.15 K, m1 = 0.003212 | 0.0279 ± 0.0017
308.15 K, m1 = 0.003414 | 0.0297 ± 0.0018
308.15 K, m1 = 0.003749 | 0.0324 ± 0.0019
308.15 K, m1 = 0.004024 | 0.0348 ± 0.0021
308.15 K, m1 = 0.004369 | 0.037 ± 0.0022
308.15 K, m1 = 0.004622 | 0.0392 ± 0.0024
308.15 K, m1 = 0.004874 | 0.0413 ± 0.0025
308.15 K, m1 = 0.00517 | 0.0438 ± 0.0026
308.15 K, m1 = 0.005462 | 0.0462 ± 0.0028
313.15 K, m1 = 0.000152 | 0.0016 ± 0.0001
313.15 K, m1 = 0.000311 | 0.0032 ± 0.0002
313.15 K, m1 = 0.000509 | 0.005 ± 0.0003
313.15 K, m1 = 0.000756 | 0.0072 ± 0.0004
313.15 K, m1 = 0.000952 | 0.0094 ± 0.0006
313.15 K, m1 = 0.001127 | 0.0112 ± 0.0007
313.15 K, m1 = 0.001383 | 0.0138 ± 0.0008
313.15 K, m1 = 0.001573 | 0.0155 ± 0.0009
313.15 K, m1 = 0.001796 | 0.0179 ± 0.0011
313.15 K, m1 = 0.001971 | 0.0201 ± 0.0012
313.15 K, m1 = 0.002233 | 0.0227 ± 0.0014
313.15 K, m1 = 0.002359 | 0.0239 ± 0.0014
313.15 K, m1 = 0.002573 | 0.0262 ± 0.0016
313.15 K, m1 = 0.002937 | 0.0297 ± 0.0018
313.15 K, m1 = 0.003135 | 0.0321 ± 0.0019
313.15 K, m1 = 0.003363 | 0.0336 ± 0.002
313.15 K, m1 = 0.003618 | 0.0359 ± 0.0022
313.15 K, m1 = 0.003798 | 0.0379 ± 0.0023
313.15 K, m1 = 0.003983 | 0.0396 ± 0.0024
313.15 K, m1 = 0.004151 | 0.0413 ± 0.0025
313.15 K, m1 = 0.004487 | 0.0444 ± 0.0027
313.15 K, m1 = 0.004771 | 0.0466 ± 0.0028
313.15 K, m1 = 0.00507 | 0.0489 ± 0.0029
313.15 K, m1 = 0.005297 | 0.0508 ± 0.003
313.15 K, m1 = 0.005682 | 0.0543 ± 0.0033
